Source: article PMC10286718, “Amino Acid Starvation-Induced Glutamine Accumulation Enhances Pneumococcal Survival” (mSphere, 2023)

Tests used:
[1] = molecular target: T1, SPD1098 SBD1 (GlnP) (Streptococcus pneumoniae, UniProt A0A0H2ZPN9); assay: isothermal titration calorimetry; type: binding
T1 construct: gene SPD_1098
T1 sequence (A0A0H2ZPN9 24-247): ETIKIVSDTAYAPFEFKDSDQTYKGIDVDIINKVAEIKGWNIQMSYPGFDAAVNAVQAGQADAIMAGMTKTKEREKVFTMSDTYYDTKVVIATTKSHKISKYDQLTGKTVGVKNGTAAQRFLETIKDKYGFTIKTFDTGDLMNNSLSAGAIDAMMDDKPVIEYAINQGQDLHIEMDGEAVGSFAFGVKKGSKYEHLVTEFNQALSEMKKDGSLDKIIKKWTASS
Text: isothermal titration calorimetry on SPD1098 SBD1 (GlnP)

[2] = molecular target: T2, SPD1098 SBD2 (GlnP) (Streptococcus pneumoniae, UniProt A0A0H2ZPN9); assay: isothermal titration calorimetry; type: binding
T2 construct: gene SPD_1098
T2 sequence (A0A0H2ZPN9 262-488): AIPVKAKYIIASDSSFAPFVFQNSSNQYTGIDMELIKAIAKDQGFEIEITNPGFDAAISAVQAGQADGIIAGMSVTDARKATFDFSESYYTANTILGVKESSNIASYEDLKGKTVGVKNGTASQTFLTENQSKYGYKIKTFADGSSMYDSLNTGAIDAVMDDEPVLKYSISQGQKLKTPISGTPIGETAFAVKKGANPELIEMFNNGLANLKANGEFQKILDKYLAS
Text: isothermal titration calorimetry on SPD1098 SBD2 (GlnP)

Row | Compound | Kd [1] | Kd [2]
1 | NC(=O)C[C@H](N)C(=O)O [asparagine] | 1090 nM | 
2 | NC(=O)CC[C@H](N)C(=O)O [glutamine] |  | 890 nM
